Assay results from patent publication US20120035241A1, “USE OF INHIBITORS OF PLAC8 ACTIVITY FOR THE MODULATION OF ADIPOGENESIS” (SANOFI-AVENTIS, priority 2008, published 2012).

Assays:
[1] = tested on: SCAT and VAT gene expression; experiment: cDNA microarray of visceral and subcutaneous adipose tissue of high fat diet fed mice treated with rimonabant; format: in vivo; conditions: C57BL/6J mice, 6 months HFD, then one month rimonabant 10 mg/kg/day; genes up-regulated by HFD (Plac8 and Rp9h down-regulated)
From the text: C57BL/6J mice, which are obesity-prone (Collins et al. 2004), were fed for 6 months with a high fat diet (HFD).
RNA from 5 different mice per group was extracted from visceral and subcutaneous adipose tissues using peqGOLD Trifast™ (peqlab) and chloroform-isoamylalcool (24:1) extraction. RNA was precipitated with isopropanol and purified by passage over RNeasy columns (Qiagen). RNA quality was checked before and after amplification with a Bioanalyzer 2100 (Agilent). RNA was reverse transcribed and RNA was amplified with MessageAmp™ kit (Ambion). A Mouse Universal Reference (Clontech) was similarly amplified and both adipose tissue and reference RNAs were labeled by an indirect technique with Cy5 and Cy3 according to published protocols (De Fourmestraux et al., 2004). Labeled RNAs were hybridized to microarrays containing 17664 cDNAs prepared at the DNA Array Facility of the University of Lausanne. Scanning, image, and quality control analyses were performed as previously published (de Fourmestraux et al., J. Biol. Chem. 2004 279:50743-53). Data were expressed as log2 intensity ratios (Cy5/Cy3), normalized with a print tip locally weighted linear regression (Lowess) method and filtered based on spot quality and incomplete annotation. All analyses were performed with the R software for statistical computing available at the Comprehensive R Archive Network (cran.us.r-project.org/).

Plac8 = experiment: Retroviral transduction of 3T3-L1 cells with shRNA, Plac8 mRNA by RT-PCR; format: cell-based, mouse; conditions: 3T3-L1 cells infected 6 hours with retroviral vectors, day 0 prior differentiation, RT-PCR (FIG. 3B)
Description: 3T3-L1 cells were cultured in DMEM (Gibco) with 10% FBS (Gibco) at 5% CO2. After retroviral infection (see below), cells were allow to grow to confluence in either 100-mm or 60-mm dishes in DMEM with 10% FBS. Once confluence was reached, cells were exposed to differentiation medium containing dexamethasone (1 μM), insulin (5 μg/ml), and isobutylmethylxanthine ([…]) (DMI). After 2 days cells were maintained in medium containing insulin (5 μg/ml) until ready for harvest at 7 days.
Retroviruses were constructed in the RNAi-Ready pSIREN-RetroQ ZsGreen (pSIREN Clontech) or pMSCV puromycin plasmid (pMSCV, Clontech). Viral constructs were transfected using calcium-phosphate method described in Jordan, M., et al. (2004) into 293 HEK packaging cells along with constructs encoding gag-pol and the VSV-G protein. Supernatants were harvested after 48 h in presence of […] of Trichostatin A (Sigma) and either used immediately or snap frozen and stored at −80° C. for later use. Viral supernatants were added to the cells for 6 hours in the presence of polybrene (4 μg/ml) and diluted two times with fresh medium for the next 15 hours.
Total RNA was isolated from cultured cells using peqGOLD TriFast reagent according to the manufacturer's instructions (Axonlab). First strand cDNA was synthesized from 0.5 μg of total RNA using random primers and Superscript II (Invitrogen). […]

| Molecule | expression of 34 gene candidates regulated by HFD in SCAT and VAT [1] | knockdown for Plac8 (mRNA) (Plac8) |
| --- | --- | --- |
| Cc1c(C(=O)NN2CCCCC2)nn(-c2ccc(Cl)cc2Cl)c1-c1ccc(Cl)cc1 [rimonabant] | normalized | – |
| shLuc: negative control siRNA sequence against luciferase, SEQ ID NO. 8 (nucleic acid, listed as DNA, chemistry not fully specified) GATCCGTGCGTTGCTAGTACCAATTCAAGAGATTGGTACTAGCAACGCACTTTTTTACGCGTG | – | no inhibition |
